Assays:
HIV protease [1] = target: T1, HIV protease (Human immunodeficiency virus type 1 group M subtype B, UniProt P03366); assay type: cell-based; settings: for rescue in 3Δ cells compared to wild type cells: Δpdr1 Δpdr3 Δsnq2 (3Δ) vs WT yeast, SC-ura galactose plates with indicated amount of inhibitor (FIG. 9)
Experimental: FIG. 5: Spot assays of Δpdr1 Δpdr3 Δsnq2 yeast expressing pAG426-GAL empty vector or pAG426-GAL-HIV protease. Strains were grown to saturation in SC-ura glucose media and serial dilutions (10-fold) of yeast were plated on SC-ura glucose or SC-ura galactose plates with or without 5 μM lopinavir added.
Cells expressing pAG426-GAL-HIV vectors were transformed into either wild type (WT) or Δpdr1 Δpdr3 Δsnq2 (3Δ) yeast which show a reduced ability to export exogenous small molecules from the cell. Cells were then grown overnight in SC-ura glucose media and spotted at 10-fold serial dilution onto SC-ura galactose plates containing the indicated amount of HIV protease inhibitor (Lopinavir or Saquinavir).

HIV protease [2] = target: T1, HIV protease; assay type: cell-based; settings: drugs screened at 10 μM; MAGeCK analysis; WT and KO cells
Experimental: (§1) Implementation of drug screening platform for proteases of viral or bacterial origin. Y axis represents drugs screened at 10 uM. X axis represents protein modeled and which cell line. WT=Natural expression of drug transporters. KO=No expression of PDR1, PDR3 and SNQ2.
(§2) All drugs were screened at a concentration of 10 μM. Barcoded cells expressing various protein drug targets were grown up individually on agar plates containing SC-ura-leu glucose. These strains were then inoculated into SC-ura-leu with glucose liquid culture media and after overnight growth were mixed together in equal amounts to generate the DNA barcoded library. The DNA barcoded library was then inoculated into SC-ura-leu with galactose liquid culture media with and without small molecule compounds.
(§3) Amplicons for NGS were generated through a two-step PCR protocol. Barcode sequences were amplified with Taq polymerase from genomic DNA preparations with primers anchored in constant regions of the 415-Kan-BC plasmid.

[3] = system: protease and kinase expressing cells; experiment: Mixed pool barcoded drug screen of protease and kinase expressing yeast (Example 4, FIG. 23, 25); assay type: cell-based; settings: FIG. 25A/25C
Excerpt: FIG. 23A-FIG. 23C: Modulation of multidrug exporters enables the testing of multiple drug concentrations in parallel. FIG. 23A: Cells expressing wild type levels of multidrug exporters capture compound known to inhibit HIV protease activity. FIG. 23B: Similar to FIG. 23A, except cells are deficient in the expression of several multidrug exporters. A greater number of previously identified protease and kinase inhibitors are identified when using the drug exporter deficient background. FIG. 23C: The average degree of rescue, measured by the growth recovery of a specific yeast strain expressing a toxic protein, is higher in the knockout background as a result of higher intracellular drug concentrations. […] Furthermore, all of the hits shown are previously validated drug-target interactions. Each of the protein targets of interest expressed in the yeast cells is listed on the x-axis. […] FDR=false discovery rate, and is in relation to enrichment. […]
A single drug screen was performed on a mixed pool of yeast cells harboring various target proteins in order to identify compounds that interfere with each of the tested protein's function. […] In order to test multiple protein targets at a time, a unique DNA barcode was added to each yeast cell, such that when read using next generation sequencing, its abundance within a mixed pool can be quantified. […]

wimpy yeast = experiment: Off-target toxicity detection with barcoded wimpy yeast (FIG. 25B, 25D); assay type: cell-based; settings: mixed pool
Excerpt: FIG. 25A-FIG. 25D: Wimpy Yeast allow for detection of drugs causing off-target toxicity in barcoded yeast pools. […] FIG. 25C and FIG. 25D: For a subset of drugs with known specific rescue of various proteases and kinases, the present screen is able to capture these effects, and a corresponding decrease in growth of any of the tested wimpy yeast was not observed. For all figures each of the protein targets of interest expressed in the yeast cells or the genes knocked out of their genome is listed on the x-axis. […] FDR=false discovery rate, FDR for FIG. 25A and FIG. 25C are in relation to enrichment while FIG. 25B and FIG. 25D are in relation to depletion.
To detect drugs that have additional pleotropic effects, which may confound the interpretation by appearing to rescue specific models, but in fact was a result of off-target effects rather than on-target enzymatic inhibition, a series of “wimpy” yeast were developed that were engineered to be sensitive to a wide variety of off-target drug toxicities (i.e., perturbations to various biological pathways). These wimpy yeast strains are engineered by using genetic mutation to selectively render the cells hypersensitive to perturbations to various core cellular pathways. […]

ALS models = experiment: Pooled DNA barcoded drug screen of ALS models against 22 small molecules (FIG. 14/18); assay type: cell-based, yeast; settings: ten ALS models as mixed pool
Experimental: Y axis represents drugs screened at 10 uM. X axis represents protein modeled and which cell line. WT=Natural expression of drug transporters.

OPTN = target: T2, OPTN (Homo sapiens, UniProt Q96CV9); experiment: Manual spot assay of cultures plated in 5-fold dilutions (FIG. 12B); assay type: cell-based; settings: consecutive 5-fold dilutions
T2 construct: expressed in transfected cells; host or cells: Saccharomyces cerevisiae, galactose-inducible expression
T2 sequence (Q96CV9 whole entry): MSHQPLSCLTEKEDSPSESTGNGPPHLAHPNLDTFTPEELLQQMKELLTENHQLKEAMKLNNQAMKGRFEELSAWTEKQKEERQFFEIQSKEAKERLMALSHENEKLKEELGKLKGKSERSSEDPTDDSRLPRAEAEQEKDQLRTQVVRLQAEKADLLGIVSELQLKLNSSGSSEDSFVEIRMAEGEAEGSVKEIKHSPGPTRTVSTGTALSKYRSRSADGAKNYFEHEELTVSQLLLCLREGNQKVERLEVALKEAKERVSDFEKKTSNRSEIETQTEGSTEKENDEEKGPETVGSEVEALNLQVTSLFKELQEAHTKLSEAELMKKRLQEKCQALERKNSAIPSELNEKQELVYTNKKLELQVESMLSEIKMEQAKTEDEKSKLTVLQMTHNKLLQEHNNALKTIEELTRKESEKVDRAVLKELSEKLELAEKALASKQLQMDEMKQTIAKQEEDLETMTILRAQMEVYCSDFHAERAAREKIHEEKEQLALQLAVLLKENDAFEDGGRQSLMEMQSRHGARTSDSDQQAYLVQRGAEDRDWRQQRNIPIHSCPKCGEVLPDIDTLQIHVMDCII
Experimental: (§4) Y axis represents drugs screened at 10 uM. X axis represents protein modeled and which cell line. WT=Natural expression of drug transporters. KO=No expression of multidrug transporters PDR1 and PDR3.
(§5) In addition, the presently disclosed screening methods were also applied towards an entirely orthogonal set of proteins. Aggregation-prone proteins are prevalent in numerous eukaryotic life forms and are implicated in a wide range of neurodegenerative diseases. […] In a drug screen of aggregation-prone proteins against 23 drugs, two significant interactions were identified (see FIG. 12A).

TAF15 = target: T3, TAF15 (Homo sapiens, UniProt Q92804); experiment: as above; assay type: cell-based; settings: consecutive 5-fold dilutions
T3 construct: expressed in transfected cells; host or cells: Saccharomyces cerevisiae, galactose-inducible expression
T3 sequence (Q92804 whole entry): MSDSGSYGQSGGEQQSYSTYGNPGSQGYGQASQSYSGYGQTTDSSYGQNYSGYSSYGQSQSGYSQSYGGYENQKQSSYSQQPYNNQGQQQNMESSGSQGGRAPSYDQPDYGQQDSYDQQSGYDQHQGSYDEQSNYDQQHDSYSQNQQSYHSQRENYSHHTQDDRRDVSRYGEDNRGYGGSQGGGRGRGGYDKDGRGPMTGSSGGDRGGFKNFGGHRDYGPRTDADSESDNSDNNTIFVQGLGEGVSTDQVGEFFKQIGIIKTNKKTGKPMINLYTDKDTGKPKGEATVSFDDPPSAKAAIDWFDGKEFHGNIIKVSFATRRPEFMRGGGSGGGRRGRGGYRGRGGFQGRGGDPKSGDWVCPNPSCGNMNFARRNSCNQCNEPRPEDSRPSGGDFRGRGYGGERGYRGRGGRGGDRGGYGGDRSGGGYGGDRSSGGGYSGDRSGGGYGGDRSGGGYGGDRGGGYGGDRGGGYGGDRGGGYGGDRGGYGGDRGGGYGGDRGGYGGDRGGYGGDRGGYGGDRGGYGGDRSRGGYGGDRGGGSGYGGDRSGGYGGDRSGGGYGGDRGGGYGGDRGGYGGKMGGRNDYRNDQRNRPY
Experimental: as §4, §5

mcherry = experiment: as above; assay type: cell-based; settings: consecutive 5-fold dilutions
Experimental: as §4

EYFP = assay type: cell-based; settings: drugs screened at 10 μM; MAGeCK analysis
Experimental: as §1, §2, §3

HIV protease [4] = target: T1, HIV protease; assay type: cell-based; settings: control cells within ALS mixed pool screen
Excerpt: Ten disease models were probed as a mixed pool across a set of 22 small molecules. […] In these experiments cells containing HIV protease, DNAseI and mCherry served as controls.
Ten ALS models were probed as a mixed pool across a set of 22 small molecules. […] In these experiments, cells containing HIV protease and DNaseI served as positive controls, and cells containing mCherry served as negative controls.

CC(C)(C)NC(=O)[C@@H]1C[C@@H]2CCCC[C@@H]2CN1C[C@@H](O)[C@H](Cc1ccccc1)NC(=O)[C@H](CC(N)=O)NC(=O)c1ccc2ccccc2n1 [Saquinavir]
rescue in 3Δ cells compared to wild type cells (HIV protease [1]): significant increases in rescue

COC(=O)N[C@H](C(=O)N[C@@H](Cc1ccccc1)[C@@H](O)CN(Cc1ccc(-c2ccccn2)cc1)NC(=O)[C@@H](NC(=O)OC)C(C)(C)C)C(C)(C)C [atazanavir]
barcode enrichment / protein-drug interaction for cells expressing HIV protease (HIV protease [2]): protein-drug interactions

Cc1cccc(C)c1OCC(=O)N[C@@H](Cc1ccccc1)[C@@H](O)C[C@H](Cc1ccccc1)NC(=O)[C@H](C(C)C)N1CCCNC1=O [Lopinavir]
rescue in 3Δ cells compared to wild type cells (HIV protease [1]): significant increases in rescue
mitigation of toxicity of yeast expressing HIV protease (HIV protease [1]; Δpdr1 Δpdr3 Δsnq2 yeast, SC-ura galactose plates, 5 μM lopinavir (FIG. 5)): toxicity can be mitigated

CC(=O)[C@]1(O)Cc2c(O)c3c(c(O)c2[C@@H](O[C@H]2C[C@H](N)[C@H](O)[C@H](C)O2)C1)C(=O)c1ccccc1C3=O [idarubicin]
rescue of protease and kinase expressing cells (barcode enrichment) [3]: significant rescue
growth of the wimpy yeast models (barcode depletion) (wimpy yeast): decrease in the growth

Nc1nc2ccc(OC(F)(F)F)cc2s1 [Riluzole]
hit among >200 tested ALS gene-drug interactions (ALS models): potential hits
growth of OPTN expressing cells in the presence of drug (OPTN): slight growth improvement
growth of TAF15 expressing cells in the presence of drug (TAF15): decreased growth
growth of mcherry expressing cells in the presence of drug (mcherry): decreased growth

CCCC(CCC)C(=O)O [valproic acid]
non-specific drug interaction with control-expressing cells (EYFP): non-specific drug interactions

CC(C)CN(C[C@@H](O)[C@H](Cc1ccccc1)NC(=O)O[C@H]1CO[C@H]2OCC[C@H]21)S(=O)(=O)c1ccc(N)cc1 [Darunavir]
rescue of growth for cells expressing HIV protease (HIV protease [4]): expected rescue of growth
